From US10414779B2, “Fused [1,2]imidazo[4,5-C] ring compounds substituted with guanidino groups” (3M INNOVATIVE PROPERTIES COMPANY, priority 2016, dated 2019)
Counter-ions that a name gives are not always drawn.

What was measured:
[1] = system: Human peripheral blood mononuclear cells (PBMC); assay: Cytokine induction in human cells (PBMC), IFN-gamma by multiplex bead assay; format: cell-based; details: 21-24 hrs, lowest concentration inducing cytokine at least 2× negative control, tested at 10, 1, 0.1, 0.01, 0.001, 0.0001 micromolar
Experimental: (§1) Cytokine Induction in Human Cells
(§2) Whole blood was obtained from healthy human donors and collected by venipuncture into vacutainer tubes or syringes containing EDTA. Human peripheral blood mononuclear cells (PBMC) were purified from the whole blood by density gradient centrifugation. Histopaque 1077 (15 mL, Sigma, St. Louis, Mo.) was transferred to 6×50 mL sterile polypropylene conical tubes. The Histopaque was overlayed with 15-25 mL of blood diluted 1:2 in Hank's Balanced Salts Solution (HBSS) (Gibco, Life Technology, Grand Island N.Y.). The tubes were then centrifuged at 1370 rpm for 30 minutes at 20° C., with no brake (400×g, GH 3.8A Rotor).
(§3) The interface (buffy coat) containing the PBMC was collected and placed in a new sterile 50 mL conical polypropylene centrifuge tube. […]
(§4) The number of viable cells were determined by counting with a Miltenyi FACS instrument (Miltenyi Biotec Inc., San Diego, Calif.) or by using a hemacytometer. […] Ten microliters of the diluted cells were then applied to the hemacytometer, and the number of viable PBMC were determined by microscopy. […]
(§5) IFN-alpha cytokine levels (pg/mL) were measured by ELISA (human IFN-α, pan specific, Mabtech, Cinncinnati, Ohio), IFN-gamma, TNF-alpha, and IP-10 cytokine levels (pg/mL) were measured by multiplex bead assay (magnetic beads, R & D Systems Minneapolis, Minn.) according to the manufacturer's instructions. […]

[2] = system: Human peripheral blood mononuclear cells (PBMC); assay: Cytokine induction in human cells (PBMC), IFN-alpha by ELISA; format: cell-based; details: 21-24 hrs, lowest concentration inducing cytokine at least 2× negative control, tested at 10, 1, 0.1, 0.01, 0.001, 0.0001 micromolar
Experimental: as §1, §2, §3, §4, §5

N=C(N)NCCC[C@H]1COCc2nc3c(N)nc4ccccc4c3n21 [Example 1, (11S)-1-{3-[6-amino-10,11-dihydro-8H-[1,4]oxazino[4′,3′:1,2]imidazo[4,5-c]quinolin-11-yl]propyl}guanidine dihydrochloride]
MEC to Induce Cytokine IFN-gamma [1]: 1.0 µM | MEC to Induce Cytokine IFN-alpha [2]: 1.0 µM
